Experimental data: ChEMBL document CHEMBL5715954, “Silencing c-Myc translation as a therapeutic strategy through targeting PI3Kδ and CK1ε in hematological malignancies” (Blood, 2017)

Key:
Parameters in all cases: scale not given: the % may be the effect or the level left
Homo sapiens = species on record: Homo sapiens; assay: Inhibition of human CDK2/cyclin A assessed as enzyme activity at 1 uM using RB Protein as substrate preincubated for 20 mins followed by [gamma-33P]-ATP addition and measured after 120 mins by radiometric Hot-SpotSM Kinase assay relative to control
[1] = target: CDK2/Cyclin O (Homo sapiens) (UniProt P24941+P22674); assay: Inhibition of human CDK2/cyclin O assessed as enzyme activity at 1 uM using Histone H1 as substrate preincubated for 20 mins followed by [gamma-33P]-ATP addition and measured after 120 mins by radiometric Hot-SpotSM Kinase assay relative to control; assay type: protein-complex assay
[2] = target: Mitogen-activated protein kinase kinase kinase 8 (Homo sapiens) (UniProt P41279); assay: Inhibition of human COT1 assessed as enzyme activity at 1 uM using MEK1 (K97R) as substrate preincubated for 20 mins followed by [gamma-33P]-ATP addition and measured after 120 mins by radiometric Hot-SpotSM Kinase assay relative to control
[3] = target: T1, Ephrin type-A receptor 1 (Homo sapiens) (UniProt P21709); assay: Inhibition of human EPHA1 assessed as enzyme activity at 1 uM using poly[Glu:Tyr] (4:1) as substrate preincubated for 20 mins followed by [gamma-33P]-ATP addition and measured after 120 mins by radiometric Hot-SpotSM Kinase assay relative to control
T1 sequence (whole entry): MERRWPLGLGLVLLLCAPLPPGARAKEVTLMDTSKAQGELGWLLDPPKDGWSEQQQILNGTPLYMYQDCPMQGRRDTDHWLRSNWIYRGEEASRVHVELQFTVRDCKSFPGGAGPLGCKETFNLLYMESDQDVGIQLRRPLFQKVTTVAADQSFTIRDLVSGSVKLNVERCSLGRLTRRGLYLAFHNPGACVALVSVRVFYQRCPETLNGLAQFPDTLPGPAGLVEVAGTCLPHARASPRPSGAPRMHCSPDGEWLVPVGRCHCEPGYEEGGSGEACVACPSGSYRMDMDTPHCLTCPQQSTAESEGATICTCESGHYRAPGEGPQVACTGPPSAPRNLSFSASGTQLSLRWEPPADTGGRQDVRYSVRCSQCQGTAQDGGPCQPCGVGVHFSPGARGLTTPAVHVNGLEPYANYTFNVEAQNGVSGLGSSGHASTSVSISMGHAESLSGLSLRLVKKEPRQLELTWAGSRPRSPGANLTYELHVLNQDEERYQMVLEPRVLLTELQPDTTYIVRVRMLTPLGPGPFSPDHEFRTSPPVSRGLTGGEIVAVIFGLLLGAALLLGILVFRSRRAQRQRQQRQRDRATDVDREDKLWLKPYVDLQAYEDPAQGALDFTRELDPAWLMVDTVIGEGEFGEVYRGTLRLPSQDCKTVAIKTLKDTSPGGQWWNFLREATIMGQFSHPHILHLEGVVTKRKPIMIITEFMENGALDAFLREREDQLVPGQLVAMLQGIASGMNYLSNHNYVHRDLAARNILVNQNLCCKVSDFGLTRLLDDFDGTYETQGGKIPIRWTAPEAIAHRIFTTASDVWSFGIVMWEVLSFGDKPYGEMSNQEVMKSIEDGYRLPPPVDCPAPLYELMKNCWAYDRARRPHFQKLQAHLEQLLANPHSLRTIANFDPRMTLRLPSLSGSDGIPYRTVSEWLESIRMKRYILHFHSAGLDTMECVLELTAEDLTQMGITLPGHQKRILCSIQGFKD

[4] = target: T2, Mitogen-activated protein kinase 13 (Homo sapiens) (UniProt O15264); assay: Inhibition of human P38d assessed as enzyme activity at 1 uM using myelin basic protein as substrate preincubated for 20 mins followed by [gamma-33P]-ATP addition and measured after 120 mins by radiometric Hot-SpotSM Kinase assay relative to control
T2 sequence (whole entry): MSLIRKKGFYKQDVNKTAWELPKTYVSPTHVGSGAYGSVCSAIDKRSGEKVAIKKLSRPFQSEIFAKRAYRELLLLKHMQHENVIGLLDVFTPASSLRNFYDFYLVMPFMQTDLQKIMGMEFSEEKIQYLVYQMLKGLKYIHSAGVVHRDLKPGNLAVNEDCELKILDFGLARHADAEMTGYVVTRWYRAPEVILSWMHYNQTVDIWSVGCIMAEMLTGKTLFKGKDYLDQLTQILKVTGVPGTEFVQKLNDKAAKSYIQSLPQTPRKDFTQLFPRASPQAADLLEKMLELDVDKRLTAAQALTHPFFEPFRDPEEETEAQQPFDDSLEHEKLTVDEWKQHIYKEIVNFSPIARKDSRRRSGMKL

[5] = target: Proto-oncogene tyrosine-protein kinase ROS (Homo sapiens) (UniProt P08922); assay: Inhibition of human ROS assessed as enzyme activity at 1 uM using KKKSPGEYVNIEFG as substrate preincubated for 20 mins followed by [gamma-33P]-ATP addition and measured after 120 mins by radiometric Hot-SpotSM Kinase assay relative to control
[6] = target: SRSF protein kinase 2 (Homo sapiens) (UniProt P78362); assay: Inhibition of human SRPK2 assessed as enzyme activity at 1 uM using GRSRSRSRSR as substrate preincubated for 20 mins followed by [gamma-33P]-ATP addition and measured after 120 mins by radiometric Hot-SpotSM Kinase assay relative to control
[7] = target: Angiopoietin-1 receptor (Homo sapiens) (UniProt Q02763); assay: Inhibition of human TIE2 assessed as enzyme activity at 1 uM using poly[Glu:Tyr] (4:1) as substrate preincubated for 20 mins followed by [gamma-33P]-ATP addition and measured after 120 mins by radiometric Hot-SpotSM Kinase assay relative to control
[8] = target: High affinity nerve growth factor receptor (Homo sapiens) (UniProt P04629); assay: Inhibition of human TRKA assessed as enzyme activity at 1 uM using poly[Glu:Tyr] (4:1) as substrate preincubated for 20 mins followed by [gamma-33P]-ATP addition and measured after 120 mins by radiometric Hot-SpotSM Kinase assay relative to control
[9] = target: Serine/threonine-protein kinase VRK2 (Homo sapiens) (UniProt Q86Y07); assay: Inhibition of human VRK2 assessed as enzyme activity at 1 uM using casein as substrate preincubated for 20 mins followed by [gamma-33P]-ATP addition and measured after 120 mins by radiometric Hot-SpotSM Kinase assay relative to control
[10] = target: Death-associated protein kinase 3 (Homo sapiens) (UniProt O43293); assay: Inhibition of human ZIPK assessed as enzyme activity at 1 uM using KKLNRTLSFAEPG as substrate preincubated for 20 mins followed by [gamma-33P]-ATP addition and measured after 120 mins by radiometric Hot-SpotSM Kinase assay relative to control

Sequence of High affinity nerve growth factor receptor (Homo sapiens) (P04629 33-796 limits assumed): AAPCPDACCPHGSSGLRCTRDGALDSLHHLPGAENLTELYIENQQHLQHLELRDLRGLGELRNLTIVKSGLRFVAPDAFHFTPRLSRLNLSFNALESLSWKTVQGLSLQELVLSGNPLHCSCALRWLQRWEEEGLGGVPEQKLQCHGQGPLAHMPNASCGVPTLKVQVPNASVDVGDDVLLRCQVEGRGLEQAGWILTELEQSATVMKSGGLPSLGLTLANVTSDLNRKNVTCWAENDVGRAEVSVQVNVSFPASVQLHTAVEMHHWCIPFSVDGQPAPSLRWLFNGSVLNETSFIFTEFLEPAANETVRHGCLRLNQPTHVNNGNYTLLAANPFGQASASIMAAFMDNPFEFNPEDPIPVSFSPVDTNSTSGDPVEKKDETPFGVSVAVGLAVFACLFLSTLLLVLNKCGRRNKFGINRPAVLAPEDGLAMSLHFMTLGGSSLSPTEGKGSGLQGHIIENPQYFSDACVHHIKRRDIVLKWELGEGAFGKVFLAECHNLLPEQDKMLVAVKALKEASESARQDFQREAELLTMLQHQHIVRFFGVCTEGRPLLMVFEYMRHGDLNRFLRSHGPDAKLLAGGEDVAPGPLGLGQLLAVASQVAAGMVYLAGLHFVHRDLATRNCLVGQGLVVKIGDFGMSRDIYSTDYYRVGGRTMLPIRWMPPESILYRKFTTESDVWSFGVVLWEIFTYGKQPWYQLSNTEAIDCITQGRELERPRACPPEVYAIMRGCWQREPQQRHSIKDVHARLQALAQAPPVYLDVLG
Sequence of Proto-oncogene tyrosine-protein kinase ROS (Homo sapiens) (P08922 whole entry): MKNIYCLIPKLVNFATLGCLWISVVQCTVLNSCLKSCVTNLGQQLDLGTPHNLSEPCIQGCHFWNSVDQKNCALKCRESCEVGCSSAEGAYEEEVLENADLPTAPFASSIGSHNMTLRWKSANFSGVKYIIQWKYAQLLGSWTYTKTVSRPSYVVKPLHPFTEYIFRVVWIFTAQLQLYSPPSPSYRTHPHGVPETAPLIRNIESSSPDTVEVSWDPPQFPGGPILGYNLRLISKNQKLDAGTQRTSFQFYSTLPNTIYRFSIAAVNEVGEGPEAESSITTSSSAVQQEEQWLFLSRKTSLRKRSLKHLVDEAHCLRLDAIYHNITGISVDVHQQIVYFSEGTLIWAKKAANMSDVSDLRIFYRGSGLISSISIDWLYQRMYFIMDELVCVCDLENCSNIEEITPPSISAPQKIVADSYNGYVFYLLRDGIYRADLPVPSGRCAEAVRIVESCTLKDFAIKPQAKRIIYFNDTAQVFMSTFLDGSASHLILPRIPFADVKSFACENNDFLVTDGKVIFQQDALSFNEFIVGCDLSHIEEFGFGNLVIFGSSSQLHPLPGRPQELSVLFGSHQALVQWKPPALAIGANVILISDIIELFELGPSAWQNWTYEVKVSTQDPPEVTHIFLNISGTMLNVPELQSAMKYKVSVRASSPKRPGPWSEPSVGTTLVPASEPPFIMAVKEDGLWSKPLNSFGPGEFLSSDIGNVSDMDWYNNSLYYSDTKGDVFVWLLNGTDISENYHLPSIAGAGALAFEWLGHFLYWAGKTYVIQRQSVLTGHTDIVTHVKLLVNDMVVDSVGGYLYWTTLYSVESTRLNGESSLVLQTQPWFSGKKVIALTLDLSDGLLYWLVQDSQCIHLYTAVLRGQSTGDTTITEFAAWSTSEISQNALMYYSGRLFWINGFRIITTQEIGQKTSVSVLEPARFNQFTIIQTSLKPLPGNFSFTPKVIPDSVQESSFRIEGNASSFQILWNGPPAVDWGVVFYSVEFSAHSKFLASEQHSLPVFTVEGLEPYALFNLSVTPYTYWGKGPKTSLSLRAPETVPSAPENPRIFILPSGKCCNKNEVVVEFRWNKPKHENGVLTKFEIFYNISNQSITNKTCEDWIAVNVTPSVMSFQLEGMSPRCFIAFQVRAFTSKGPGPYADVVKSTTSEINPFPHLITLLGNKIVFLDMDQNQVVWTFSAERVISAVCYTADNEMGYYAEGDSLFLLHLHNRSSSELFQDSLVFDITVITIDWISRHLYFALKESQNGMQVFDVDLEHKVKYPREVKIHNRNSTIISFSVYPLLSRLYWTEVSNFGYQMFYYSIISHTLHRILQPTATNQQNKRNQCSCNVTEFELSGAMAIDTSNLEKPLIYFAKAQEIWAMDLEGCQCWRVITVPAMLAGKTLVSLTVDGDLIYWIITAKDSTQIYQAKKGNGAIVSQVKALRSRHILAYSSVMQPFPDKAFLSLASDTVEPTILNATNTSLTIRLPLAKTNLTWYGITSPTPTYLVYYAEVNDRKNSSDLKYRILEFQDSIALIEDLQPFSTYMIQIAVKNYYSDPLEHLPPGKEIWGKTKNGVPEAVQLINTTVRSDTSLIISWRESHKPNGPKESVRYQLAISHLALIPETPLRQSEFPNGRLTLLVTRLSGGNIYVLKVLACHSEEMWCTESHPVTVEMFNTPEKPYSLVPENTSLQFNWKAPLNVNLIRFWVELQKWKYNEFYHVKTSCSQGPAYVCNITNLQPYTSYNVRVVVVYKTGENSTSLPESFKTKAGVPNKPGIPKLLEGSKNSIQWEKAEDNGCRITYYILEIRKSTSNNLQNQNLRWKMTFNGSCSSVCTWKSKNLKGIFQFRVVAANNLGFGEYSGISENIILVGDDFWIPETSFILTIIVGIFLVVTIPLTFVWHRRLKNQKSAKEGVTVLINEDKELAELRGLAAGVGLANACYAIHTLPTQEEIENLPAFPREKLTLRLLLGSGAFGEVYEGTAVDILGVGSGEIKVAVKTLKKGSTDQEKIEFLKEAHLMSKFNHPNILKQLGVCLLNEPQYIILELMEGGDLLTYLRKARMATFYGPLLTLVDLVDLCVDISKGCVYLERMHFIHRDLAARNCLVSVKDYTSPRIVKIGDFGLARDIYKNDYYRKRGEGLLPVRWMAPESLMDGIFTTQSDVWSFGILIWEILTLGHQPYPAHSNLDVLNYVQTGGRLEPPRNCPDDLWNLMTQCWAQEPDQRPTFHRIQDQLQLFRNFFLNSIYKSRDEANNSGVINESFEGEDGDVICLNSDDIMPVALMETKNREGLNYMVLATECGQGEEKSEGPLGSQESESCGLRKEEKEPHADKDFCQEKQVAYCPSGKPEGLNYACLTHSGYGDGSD
Sequence of SRSF protein kinase 2 (Homo sapiens) (P78362 whole entry, looked up): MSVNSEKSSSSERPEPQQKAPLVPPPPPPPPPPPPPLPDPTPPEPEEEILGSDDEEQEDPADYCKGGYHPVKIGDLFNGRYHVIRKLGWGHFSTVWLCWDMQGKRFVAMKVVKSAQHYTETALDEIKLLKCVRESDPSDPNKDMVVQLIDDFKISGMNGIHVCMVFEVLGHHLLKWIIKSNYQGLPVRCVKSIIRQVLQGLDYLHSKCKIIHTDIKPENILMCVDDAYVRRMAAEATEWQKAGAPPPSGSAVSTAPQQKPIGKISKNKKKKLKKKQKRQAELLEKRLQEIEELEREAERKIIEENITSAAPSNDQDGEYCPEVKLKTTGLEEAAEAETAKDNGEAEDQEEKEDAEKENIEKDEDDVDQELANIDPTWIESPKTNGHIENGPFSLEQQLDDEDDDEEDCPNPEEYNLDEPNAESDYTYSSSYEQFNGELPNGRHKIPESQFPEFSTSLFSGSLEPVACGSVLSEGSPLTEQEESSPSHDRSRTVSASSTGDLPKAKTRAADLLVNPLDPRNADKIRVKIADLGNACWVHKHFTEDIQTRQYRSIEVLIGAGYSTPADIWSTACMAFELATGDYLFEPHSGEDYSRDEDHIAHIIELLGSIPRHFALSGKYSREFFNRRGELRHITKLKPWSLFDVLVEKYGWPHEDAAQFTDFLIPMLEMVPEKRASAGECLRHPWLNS
Sequence of Serine/threonine-protein kinase VRK2 (Homo sapiens) (Q86Y07 whole entry): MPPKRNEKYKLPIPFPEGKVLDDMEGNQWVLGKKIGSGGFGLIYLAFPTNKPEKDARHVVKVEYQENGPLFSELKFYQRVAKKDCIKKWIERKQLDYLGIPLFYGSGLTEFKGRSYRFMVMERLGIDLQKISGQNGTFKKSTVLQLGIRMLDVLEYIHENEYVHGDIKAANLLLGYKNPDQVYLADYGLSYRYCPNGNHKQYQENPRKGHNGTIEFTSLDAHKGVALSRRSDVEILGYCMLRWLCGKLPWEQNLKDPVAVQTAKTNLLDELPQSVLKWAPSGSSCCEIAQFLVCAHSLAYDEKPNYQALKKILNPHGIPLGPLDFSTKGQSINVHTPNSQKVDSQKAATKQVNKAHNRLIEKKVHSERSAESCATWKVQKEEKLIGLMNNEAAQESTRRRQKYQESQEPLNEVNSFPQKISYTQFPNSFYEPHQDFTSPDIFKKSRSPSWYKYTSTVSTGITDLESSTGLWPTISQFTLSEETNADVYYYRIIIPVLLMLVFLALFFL
Sequence of Mitogen-activated protein kinase kinase kinase 8 (Homo sapiens) (P41279 whole entry): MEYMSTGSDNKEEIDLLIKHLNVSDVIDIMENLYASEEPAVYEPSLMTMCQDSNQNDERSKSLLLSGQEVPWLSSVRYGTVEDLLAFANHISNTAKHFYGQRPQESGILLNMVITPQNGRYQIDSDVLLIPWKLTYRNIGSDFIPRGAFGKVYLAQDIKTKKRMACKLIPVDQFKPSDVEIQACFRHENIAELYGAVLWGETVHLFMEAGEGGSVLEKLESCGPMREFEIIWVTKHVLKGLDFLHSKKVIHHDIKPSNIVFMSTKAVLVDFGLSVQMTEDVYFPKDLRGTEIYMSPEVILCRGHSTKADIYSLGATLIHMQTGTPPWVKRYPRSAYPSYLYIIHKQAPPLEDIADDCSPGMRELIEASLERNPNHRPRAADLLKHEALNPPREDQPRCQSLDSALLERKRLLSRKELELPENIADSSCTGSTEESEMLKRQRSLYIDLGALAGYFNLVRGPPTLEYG

SMILES	Activity (Homo sapiens) [%]	Activity [1] [%]	Activity [2] [%]	Activity [3] [%]	Activity [4] [%]	Activity [5] [%]	Activity [6] [%]	Activity [7] [%]	Activity [8] [%]	Activity [9] [%]	Activity [10] [%]
CC[C@H](Nc1ncnc2[nH]cnc12)c1nc2cccc(F)c2c(=O)n1-c1ccccc1	100	92.8	101	91.4	96.5	98	91.3	97.9	91	98.3	99.3
C[C@H](Nc1ncnc2nc[nH]c12)c1cc2cccc(Cl)c2c(=O)n1-c1ccccc1	101	90.7	96.8	95.2	105	86.7	92.3	97.3	87.3	88.3	107
CC(C)Oc1ccc(-c2nn([C@@H](C)c3oc4ccc(F)cc4c(=O)c3-c3cccc(F)c3)c3ncnc(N)c23)cc1F [UMBRALISIB]	104	92.9	98.2	96.4	104	94.5	86	92	89	87	103
